Reference: US20050282707A1, “Pyridinylisoxazoles and their use as herbicides” (Bayer CropScience GmbH, priority 2004, published 2005)

Assays:
Assay type in all cases: in vivo
Amaranthus retroflexus = test: Pre-emergence herbicidal action; conditions: 320 g of active ingredient or less per hectare, greenhouse, visual scoring after 3 to 4 weeks vs untreated controls
Source text: (§1) Seeds of mono- and dicotyledonous weed plants are placed in sandy loam in cardboard pots and covered with soil. The compounds according to the invention, formulated as wettable powders or emulsifiable concentrates, are then applied, in the form of an aqueous suspension or emulsion, at a dosage of 320 g of active ingredient or less per hectare (converted), onto the surface of the covering earth, at an application rate of 600 to 800 l of water per ha (converted). Following treatment, the pots are placed in the greenhouse and maintained under good growth conditions for the weed plants. The visual scoring of the plant damage or emergence damage is made when the test plants have emerged, after an experimental period of 3 to 4 weeks, in comparison to untreated controls.

Setaria viridis = test: Pre-emergence herbicidal action; conditions: 320 g of active ingredient or less per hectare, greenhouse, visual scoring after 3 to 4 weeks vs untreated controls
Source text: as §1

Sinapis arvensis = test: Pre-emergence herbicidal action; conditions: 320 g of active ingredient or less per hectare, greenhouse, visual scoring after 3 to 4 weeks vs untreated controls
Source text: as §1

maize plants = test: Crop plant tolerance; conditions: application rate of 320 g, plants with two to three true leaves, greenhouse, visual scoring four to five weeks after application
Source text: as §1
(§2) In further greenhouse experiments, seeds of crop plants and of monocotyledonous and dicotyledonous weed plants are placed in sandy loam, covered with soil and placed in the greenhouse until the plants have developed two to three true leaves. Then they are treated with the compounds of the formula (I) according to the invention, and compared with those disclosed in the prior art, as described above in section 1. Four to five weeks after the application and after having been left to stand in the greenhouse, visual scoring is performed. In this test, for example, the compounds of Nos: 1.44, 2.39 and 3.44, at an application rate of 320 g, lead to no damage to maize and wheat plants.

wheat plants = test: Crop plant tolerance; conditions: application rate of 320 g, plants with two to three true leaves, greenhouse, visual scoring four to five weeks after application
Source text: as §1, §2

Row | Structure (SMILES) | activity against Amaranthus retroflexus (Amaranthus retroflexus) [%] | activity against Setaria viridis (Setaria viridis) [%] | activity against Sinapis arvensis (Sinapis arvensis) [%] | damage to maize plants (maize plants) | damage to wheat plants (wheat plants)
1 | CSc1ccc(-c2oncc2C(=O)C2CC2)c(C)n1 [2.14] | 100 | 100 | 100 |  | 
2 | CCS(=O)(=O)c1ccc(C(=O)c2cnoc2C2CC2)c(C)n1 [1.19] | 100 | 100 | 100 |  | 
3 | CCS(=O)(=O)c1ccc(-c2oncc2C(=O)C2CC2)c(C)n1 [2.19] | 100 | 100 | 100 |  | 
4 | Cc1nc(Cl)ccc1-c1oncc1C(=O)C1CC1 [2.39] | 100 | 100 | 100 | no damage | no damage
5 | Cc1nc(Cl)ccc1C(=O)c1cnoc1C1CC1 [1.39] | 100 | 100 | 100 |  | 
6 | Cc1nc(C(F)(F)F)ccc1C(=O)C(C#N)C(=O)C1CC1 (stereo not shown) [3.44] | 100 | 100 | 100 | no damage | no damage
